From patent EP4722363A1, “RNAI AGENT FOR INHIBITING ANGPTL3 EXPRESSION AND USE THEREOF” (YUN HO BIO CO., LTD, priority 2023, dated 2024)

Legend:
[1] = test system: ANGPTL3 Protein; test: PHH free uptake, inhibition of ANGPTL3, ELISA of supernatant; format: cell-based; settings: primary human hepatocytes, 72 hours
Method: PHH cells were thawed and adjusted to a density of 6×10^5 cells/mL. Then, 10 µL of the compound from the dilution plate was added to the cell culture plate, resulting in final compound concentrations of 100, 40, 12.5, 5, and 2 nM. The cells were seeded into a 96-well plate at a density of 54,000 cells per well (90 µL/well), with a final culture volume of 100 µL per well. The cells were cultured in a 5% CO2 incubator at 37°C for 72 hours.
(§1) The supernatant from the PHH and PCH cultures from the previous steps was collected, transferred to a new 96-well V-bottom plate, and centrifuged. Human Angiopoietin-like 3 protein (hANGPTL3 protein; DANL30) ELISA test was performed according to the instructions of HANGPTL 3 protein Kit.
(§2) Data Analysis: Four Parameter Logistic method. This method constructs a standard curve by plotting, with the y-axis as the average absorbance of the standards and the x-axis as the concentration, drawing a best-fit curve through the points on the graph. The OD value of the log concentration of the sample's HANGPTL3 protein is determined against the best-fit line of the log concentration by regression analysis. [formula]
(§3) Sequences with good activity in Table 8 were evaluated for in vitro inhibitory activity against ANGPTL3 Protein in primary human hepatocytes (PHH) and primary cynomolgus monkey hepatocytes (PCH). Table 10. In Vitro Inhibitory Activity of MCPP-siRNAs against ANGPTL3 mRNA in PHH Cell Line

[2] = test system: ANGPTL3 Protein; test: PCH free uptake, inhibition of ANGPTL3, ELISA of supernatant; format: cell-based; settings: primary cynomolgus monkey hepatocytes, 72 hours
Method: PCH cells were resuscitated using 10% FBS InvitroGRO™ HT Medium, and subsequently, the cell density was adjusted to 3×10^5 cells/mL using 10% FBS InvitroGRO™ CP Medium. Then, 10 µL of the compound from the dilution plate was added to the cell culture plate, resulting in final compound concentrations of 25, 5, and 1 nM. The cells were seeded into a 96-well plate at a density of 27,000 cells per well (90 µL/well), with a final culture volume of 100 µL per well. The cells were cultured in a 5% CO2 incubator at 37 °C for 72 hours.
as §1, §2, §3

[3] = test system: ANGPTL3; test: In vivo efficacy of ANGPTL3 GalNAc-siRNAs in hANGPTL3 humanized mice; settings: 3 mg/kg subcutaneous on day 0; days 7, 14, 21, 28; normalized to day -1; compared to the control; Fig. 1
Method: To evaluate the in vivo efficacy of siRNA against ANGPTL3 in mice, female ANGPTL3 humanized mice (purchased from Shanghai Model Organisms Center, Inc.) were used for in vivo efficacy testing. Mice were randomly divided into 5 groups, with 5 mice per group: G1, Control (PBS) negative control group; G2, 2002-034-001 (3 mg/kg) treatment group; G3, 2008-010-001 (3 mg/kg) treatment group; G4, 2008-019-001 (3 mg/kg) treatment group; and G5, 2008-019-002 (3 mg/kg) treatment group.
On days -7 and -1, pre-dose plasma samples were obtained after a 4-hour fast. The above siRNA conjugates were diluted with saline and administered subcutaneously to the mice according to body weight on day 0. Plasma was collected after a 4-hour fast on days 7, 14, 21, and 28, respectively. The ANGPTL3 protein level in plasma was detected by ELISA (R&D Systems). Plasma triglycerides (TG), total cholesterol (CHO), high-density lipoprotein cholesterol (HDL-c), low-density lipoprotein cholesterol (LDL-c), alanine aminotransferase (ALT), and aspartate aminotransferase (AST) were tested by Shanghai Bikai Keyi Biotechnology Co., Ltd.
To evaluate the in vivo efficacy of the siRNAs against ANGPTL3 in mice, female ANGPTL3 humanized mice (purchased from Shanghai Model Organisms Center, Inc.) were used for the efficacy study. The mice were randomly allocated into five groups (n=5 per group) as follows: • G1: Control (PBS) negative control group; • G2: 2002-034-001 (3 mg/kg) treatment group; • G3: 2008-010-001 (3 mg/kg) treatment group; • G4: 2008-019-001 (3 mg/kg) treatment group; • G5: 2008-019-002 (3 mg/kg) treatment group.
The day of the first administration was designated as day 0. Accordingly, the day before administration was designated as day -1, and the day after administration as day 1.
On day -7, all mice were fasted for 4 hours, and mandibular blood was collected to obtain plasma for hANGPTL3 protein detection. […]
On day -1, pre-dose plasma samples were obtained after a 4-hour fast. […] The ANGPTL3 protein level in plasma was detected by ELISA (R&D Systems). […]

[4] = test system: ANGPTL3; test: In vivo efficacy of ANGPTL3 GalNAc-siRNA in HFD-induced hyperlipidemic cynomolgus monkeys; settings: single subcutaneous injection, normalized to pre-treatment, Fig. 2
Method: To evaluate the in vivo activity of siRNA against ANGPTL3, 6 HFD-induced hyperlipidemic cynomolgus monkeys were used for the experiment. Pre-dose serum samples were obtained after a 4-hour fast on days -7 and -14. The siRNA conjugate was diluted with saline and administered subcutaneously according to the experimental design on day 0. Blank saline was used as a negative control. Plasma was collected after a 4-hour fast on days 0, 7, 14, 28, 42, 49, and 56. Serum triglycerides were detected using an automatic biochemical analyzer.
The ANGPTL3 protein levels and triglyceride levels for each animal were normalized. For normalization, at a given time point, the ANGPTL3 protein and triglyceride levels of each animal were divided by the pre-treatment expression level of that animal (the average of the pre-experiment samples for that group) to determine the change in "normalization to pre-treatment".

2008-010-001: GalNAc-conjugated modified ANGPTL3 siRNA, sense SEQ ID NO 40 (3'-YHZY12001), antisense SEQ ID NO 27 (sense GAGAAGAACUACAUAUAAA; antisense UUUAUAUGUAGUUCUUCUCAG; GalNAc conjugate YHZY12001 at sense 3', chemistry not fully specified) [Duplex 2008-010-001]
IC50 [1]: 0.81 nM | Average Inhibition in PCH % ([2]; 1nM): 62.75% | Average Inhibition in PCH % ([2]; 5nM): 74.73% | Average Inhibition in PCH % ([2]; 25nM): 78.39% | level of ANGPTL3 protein in the plasma [3]: significantly reduced | level of total cholesterol (CHO) in the plasma [3]: significantly reduced | level of triglycerides (TG) in the plasma [3]: significantly reduced | serum ANGPTL3 protein level [4]: significantly inhibited | triglyceride level ([4]; serum): significantly reduced

2008-018-001: GalNAc-conjugated modified ANGPTL3 siRNA, sense SEQ ID NO 41, antisense SEQ ID NO 27 (sense GAGAAGAACUACAUAUAAA; antisense UUUAUAUGUAGUUCUUCUCAG; GalNAc conjugated, chemically modified, pattern not given here) [Duplex 2008-018-001]
IC50 [1]: 2.34 nM | Average Inhibition in PCH % ([2]; 1nM): 59.56% | Average Inhibition in PCH % ([2]; 5nM): 73.29% | Average Inhibition in PCH % ([2]; 25nM): 76.55%
